Source: patent publication US20050130232A1, “Methods of screening for compounds that modulate hormone receptor activity” (Allergan, Inc., priority 2001, published 2005)

Tests used:
[1] = target: T1, RXRα associated protein kinase (Homo sapiens, UniProt P19793); assay: In vitro phosphorylation of exogenous protein substrates by RXR-associated kinase; type: cell-based; conditions: Flag-RXR transfected cells, 10^-7 M
T1 sequence (P19793 1-462): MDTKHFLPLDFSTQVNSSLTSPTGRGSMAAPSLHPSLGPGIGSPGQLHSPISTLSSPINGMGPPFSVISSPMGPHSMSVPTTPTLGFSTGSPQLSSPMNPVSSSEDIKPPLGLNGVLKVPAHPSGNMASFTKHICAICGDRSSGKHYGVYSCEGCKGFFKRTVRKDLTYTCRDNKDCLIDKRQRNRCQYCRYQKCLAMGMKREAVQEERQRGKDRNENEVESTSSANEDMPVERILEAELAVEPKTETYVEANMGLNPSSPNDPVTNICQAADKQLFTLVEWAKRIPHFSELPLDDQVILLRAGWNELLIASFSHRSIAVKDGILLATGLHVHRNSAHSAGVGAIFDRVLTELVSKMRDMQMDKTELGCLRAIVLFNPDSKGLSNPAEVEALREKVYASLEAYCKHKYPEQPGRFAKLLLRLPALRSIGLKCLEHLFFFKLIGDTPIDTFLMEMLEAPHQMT
Description: Total cell lysates were immunoprecipitated with anti-FLAG antibody (M2). Immunoprecipitated material was used for in vitro kinas reaction with γ-^32P-ATP alone or with addition of exogenous mixed histones or myelin basic protein (MBP). The phosphorylated proteins were separated on SDS-PAGE and detected by autoradiography.
After terminating the kinase reaction, the products were analyzed by SDS-PAGE.
Kinase reactions with purified proteins were performed essentially as described above for synthetic peptide substrates. Briefly, immunoprecipitated complexes were resuspended in kinase assay buffer with 2 μg myelin basic protein (Sigma) or histone-M (Roche), and kinase reactions initiated by addition of 50 μM [γ-^32P]ATP (10 μCi). The reaction mixtures were then incubated at 25° C. with occasional shaking for 20 minutes, and terminated by addition of sample buffer. SDS-PAGE analysis and autoradiography were used to visualize the results.

[2] = tested on: RXR-associated protein kinase in Flag-RXR immunocomplexes; assay: In vitro kinase reaction with [γ-32P]ATP on Flag-RXR immunocomplexes from transfected HEK 293 cells; type: cell-based, human
Source text: (§1) Total cell lysates were immunoprecipitated with anti-Flag antibody (M2). Aliquots of the immunocomplexes were used for the in vitro kinase reaction with [γ-^32P]ATP and separated on SDS-PAGE. Phosphorylated proteins were detected by autoradiography (top panel). Additional aliquots of the immunocomplexes were subjected to immunoblotting with polyclonal anti-RXR antisera (D20; bottom panel). (B) Phosphoamino acid analysis. Flag-RXR and the 160-kDa protein were phosphorylated in vitro and separated on SDS-PAGE as described above, then transferred onto PVDF membrane, detected by autoradiography, and cut out for hydrolysis with acid (6 N HCl). The phosphorylated amino acids and standards (P-Ser, P-Thr, and P-Tyr) were separated by thin-layer chromatography. Positions of the standards P-Ser, P-Thr, and P-Tyr were visualized by ninhydrin staining and are indicated by arrows. (C) In vivo metabolic labeling of transfected HEK 293 cells. […] Cells were washed with phosphate-free medium and starved for 90 minutes before incubation with [^32P]orthophosphate for another 4 hours. […] Total cell lysates were immunoprecipitated with anti-Flag antibody (M2) and subjected to separation on SDS-PAGE. Phosphorylated proteins were detected by autoradiography.
(§2) Total cell lysates were subjected to immunoprecipitation, and the in vitro kinase reaction performed as described above.
(§3) Cell lysis, immunoprecipitation with anti-Flag (M2), in vitro kinase assay, and detection of the phosphorylated proteins in the RXRα immunoprecipitated complexes were performed as described above.
(§4) Cell culture and transient transfection was performed as follows. HEK 293 cells were grown in Dulbecco's modified Eagle's medium (DMEM) supplemented with 10% fetal bovine serum (FBS), 100U of penicillin per ml and 10 μg of streptomycion per ml at 37° C. in 5% CO2. For expression of RXR protein, 100-mm dishes of cells were transfected at 50% confluence with 2 μg of plasmid DNA using Lipofectamine (Life Technologies) as specified by the manufacturer. At 32 hours post-transfection, cells were starved by incubating in DMEM medium with 2.5% charcoal-treated fetal bovine serum or 0.1-0.5% calf bovine serum overnight, and then treated with indicated agents. Cells were harvested by aspirating medium, rinsing in phosphate buffered saline (PBS), and extracting into Lysis Buffer (30 mM Tris-HCL, pH 7.4, 0.5% Nonidet P-40, 10% glycerol, 150 mM NaCl, 1 mM EDTA, 40 mM NaF, 1 mM sodium orthovanadate, and 0.5 mM phenylmethylsufonyl fluoride, and 1× protease inhibitors, (Roche Diagnostics) or 1×SDS Sample Buffer.
(§5) Immunoprecipitation was performed essentially as follows. Cells were solubilized in cold Lysis Buffer and subsequently clarified by centrifugation at 20,000 g for 10 minutes at 4° C. Immunoprecipitations were performed at 4° C. by incubating clarified cell extracts with the indicated antibodies (2 μg/ml) and protein A/G-agarose beads (1:30 dilution of a 50% suspension) on a rotating wheel for 4 hours to overnight. Agarose beads were pelleted by low speed centrifugation and washed extensively with ice-cold Lysis Buffer.
(§6) Protein kinase assays were performed as follows. Immunoprecipitated complexes were resuspended in 15 μl of Kinase Assay Buffer (30 mM Tris-HCl, pH 7.4 and 10 mM MgCl2). Kinase reactions were initiated by addition of 2.5 μl of 50 μM [γ-^32P]ATP (10 μCi) to the immune-complexes, followed by incubation at 25° C. with occasional shaking for 20 minutes, and terminated by addition of 6 μl 4×SDS Sample Buffer. After heating at 100° C. for 5 minutes, the reaction mixtures were resolved by 4-12% SDS-PAGE. Incorporation of ^32P into RXR or other proteins was determined by autoradiography.

[3] = target: T2, RXR-associated protein kinase in Flag-RXR immunocomplexes (Homo sapiens, UniProt P19793); assay: as above; type: cell-based; conditions: transfected HEK 293 cells treated with ligand before anti-Flag immunoprecipitation
T2 construct: expressed in transfected cells; host or cells: HEK 293
T2 sequence (P19793 1-462): T1 sequence (P19793 1-462)
Source text: as §1, §2, §3, §4, §5, §6

[4] = target: T3, RXRα phosphorylation by protein kinase A (Homo sapiens, UniProt P19793); assay: Phosphorylation of immunoprecipitated RXRα by purified PKA; type: biochemical; conditions: cells incubated with 10^-7 M ligand
T3 construct: host or cells: HEK293
T3 sequence (P19793 1-462): T1 sequence (P19793 1-462)
Description: Left panel: Cells were immunoprecipitated with anti-FLAG antibody, and the immunoprecipitates analyzed by SDS-PAGE and blotting with anti-PKA antibody. Right panel: Cells were immunoprecipitated with anti-PKA antibody, and the immunoprecipitates analyzed by SDS-PAGE and blotting with anti-FLAG antibody. B. Phosphorylation of RXRα by PKA. […] PKA I and PKC I indicate inhibitors of PKA and PKC, respectively.
RXRα-containing immunoprecipitates prepared with anti-Flag antibody were incubated with purified catalytically active PKA (Upstate Biotechnology) and […]; in addition, protein kinase A inhibitor or protein kinase C inhibitor was added to some reactions as indicated. The kinase reaction products were analyzed by SDS-PAGE.

CC(/C=C/[C@@H]1C[C@]1(C)c1ccc2c(c1)C(C)(C)CCC2(C)C)=C\C(=O)O [AGN194204]
in vitro phosphorylation of histone-M [1]: increased | in vitro phosphorylation of myelin basic protein (MBP) [1]: dramatically increased | recruitment of kinase activity to the immunocomplex ([2]; AF-2 region deleted from RXRα): kinase activity was not recruited | recruitment of kinase activity to the immunocomplex ([2]; RXRα deletion mutants containing an intact E region): recruited kinase activity | phosphorylation of RXR and 160 kDa protein in Flag-RXR immunocomplexes [3]: contained a kinase phosphorylated RXR and a 160 kDa protein | extent of RXRα phosphorylation by purified PKA [4]: increased
